Data: US20260199323A1, “LIGAND COMPOUNDS FOR E3 UBIQUITIN LIGASE, PROTEIN DEGRADERS DEVELOPED ON BASIS OF LIGAND COMPOUNDS, AND USES THEREOF” (GLUETACS THERAPEUTICS (SHANGHAI) CO., LTD., priority 2021, published 2026)
Like-named read-outs stand apart in the source and are kept apart here.

What was measured:
[1] = system: T47D; assay: CCK-8 tumor cell proliferation, T47D; format: cell-based, Human; details: for IC50: Homo sapiens, T47D
Method: (§1) The tumor cells used herein were cultured in a cell culture medium listed in table 4 at 37° C. in an incubator with 5% CO2. Prior to experimentation, all cells used were correctly identified by STR profiling, and tested negative for mycoplasma through routine screenings.
(§2) IC50 values of the compounds of the present disclosure (including the compounds in Tables 1 and 3, and compounds of examples) were measured using the Meilun Cell Counting Kit-8 kit from Dalian Meilun Biotech Co., Ltd. Assay details are as follows: tumor cells were seeded in a 96-well plate at a density listed in Table 5. After 24 h, 100 μL of the inoculated cells were treated with 0.5 μL of the compounds of the present disclosure (including the compounds in Tables 1 and 3, and compounds of examples) at 10 different successively decreasing concentrations (starting at the highest concentration of 10 μM; 5-fold serial dilutions). After the cells were treated with the compounds of the present disclosure for a period of time, the cell viability detection reagent was added to the culture medium for cell viability assessment according to the instructions provided with the CCK-8 kit. […] The growth inhibition of the compounds of the present disclosure on cells was plotted by Prism Graphpad software, and the IC50 values of the compounds of the present disclosure were calculated therefrom.

[2] = system: HCC827; assay: CCK-8 tumor cell proliferation, HCC827; format: cell-based, Human; details: Table 8, designed based on ER inhibitors, 96 h
Method: The tumor cells used herein were cultured in a cell culture medium listed in table 4 at 37° C. in an incubator with 5% CO2.
as §2, with “After” for “IC50 values of the compounds of the present disclosure (including the compounds in Tables 1 and 3, and compounds of examples) were measured using the Meilun Cell Counting Kit-8 kit from Dalian Meilun Biotech Co., Ltd. Assay details are as follows: tumor cells were seeded in a 96-well plate at a density listed in Table 5. After”

[3] = system: CCRF-CEM; assay: CCK-8 tumor cell proliferation, CCRF-CEM; format: cell-based, Human; design: IC50 for inhibiting the proliferation of tumor cells, CCRF-CEM: scale not given here; details: for IC50: Homo sapiens, CCRF-CEM
How it was run: (§3)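 Using the CCK-8 kit, viability of plated cells is assessed after exposure to compound across ten concentrations (5-fold serial dilution, top 10 μM) added at 24 h. IC50 is obtained by curve fitting of growth inhibition.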

[4] = system: MDA-MB-231; assay: CCK-8 tumor cell proliferation, MDA-MB-231; format: cell-based, Human; design: IC50 for inhibiting the proliferation of tumor cells, MDA-MB-231: scale not given here
How it was run: as §3

[5] = system: SU-DHL-6; assay: CCK-8 tumor cell proliferation, SU-DHL-6; format: cell-based, Human; details: 72 h
Method: as §1, §2

[6] = system: MM.1S; assay: CCK-8 tumor cell proliferation, MM.1S; format: cell-based; details: for IC50: Homo sapiens, MM1.S
How it was run: as §3

[7] = system: Kasumi-1; assay: CCK-8 tumor cell proliferation, Kasumi-1; format: cell-based, Human; details: for IC50 for inhibiting the proliferation of tumor cells, Kasumi-1: Table 8, designed based on ER inhibitors, 72 h; for IC50: Homo sapiens, Kasumi-1, read-out: IC50 inhibiting proliferation of tumor cells, Kasumi-1
How it was run: as §3

[8] = system: Hep3B2.7-1; assay: CCK-8 tumor cell proliferation, Hep3B2.7-1; format: cell-based, Human; details: for IC50: Homo sapiens
Method: as §1, §2

[9] = system: SW620; assay: CCK-8 tumor cell proliferation, SW620; format: cell-based, Human; details: for IC50 for inhibiting the proliferation of tumor cells, SW620: Table 8, designed based on ER inhibitors, 96 h
How it was run: as §3

[10] = system: Mino; assay: CCK-8 tumor cell proliferation, Mino; format: cell-based, Human; details: for IC50 for inhibiting the proliferation of tumor cells, Mino: 72 h
How it was run: as §3

[11] = system: Jurkat; assay: CCK-8 tumor cell proliferation, Jurkat; format: cell-based, Human; details: Homo sapiens, read-out: IC50 inhibiting proliferation of tumor cells, Jurkat
How it was run: as §3

[12] = system: MM.1R; assay: CCK-8 tumor cell proliferation, MM.1R; format: cell-based; details: read-out: IC50 inhibiting proliferation of tumor cells, MM.1R
How it was run: as §3

[13] = system: SR; assay: CCK-8 tumor cell proliferation, SR; format: cell-based, Human; details: Homo sapiens; Table 18, FAK inhibitor based; SR; read-out: IC50 inhibiting proliferation of tumor cells, SR
How it was run: as §3

[14] = system: PC-9; assay: CCK-8 tumor cell proliferation, PC-9; format: cell-based, Human; details: Homo sapiens; Table 18, FAK inhibitor based; PC-9; read-out: IC50 inhibiting proliferation of tumor cells, PC-9
[15] = system: HGC-27; assay: CCK-8 tumor cell proliferation, HGC-27; format: cell-based, Human; details: Homo sapiens; Table 18, FAK inhibitor based; HGC-27; read-out: IC50 inhibiting proliferation of tumor cells, HGC-27
Method: as §1, §2

[16] = Table 8, designed based on ER inhibitors, 96 h
[17] = Table 8, designed based on ER inhibitors
[18] = Table 8, designed based on ER inhibitors, 72 h
[19] = Table 14, designed based on CDK4/6 inhibitors
[20] = Table 22, NTRK inhibitor based, read-out: IC50 inhibiting proliferation of tumor cells, T47D
[21] = Table 22, NTRK inhibitor based, read-out: IC50 inhibiting proliferation of tumor cells, CCRF-CEM
[22] = Table 22, NTRK inhibitor based, MM.1S, read-out: IC50 inhibiting proliferation of tumor cells, MM.1S
[23] = Table 22, NTRK inhibitor based, HEP3B2.7-1, read-out: IC50 inhibiting proliferation of tumor cells, HEP3B2.7-1

In the case of `CN(CCOc1ccc(/C(=C(/CCCl)c2ccccc2)c2ccccc2)cc1)Cc1ccc2c(c1)CN(C1CCC(=O)NC1=O)C2=O` (stereo not drawn) [GT-02970, (Z)-3-(5-(((2-(4-(4-chloro-1,2-diphenylbut-1-en-1-yl)phenoxy)ethyl)(methyl)amino)methyl)-1-oxoisoindolin-2-yl)piperidine-2,6-dione], the “IC50 for inhibiting the proliferation of tumor cells, T47D” value [1, 16] is reported as “A+”.
In the case of `CCC(=C(c1ccc(O)cc1)c1ccc(OCCNCc2ccc3c(c2)CN(C2CCC(=O)NC2=O)C3=O)cc1)c1ccc(O)cc1` (stereo not drawn) [GT-03214, 3-(5-(((2-(4-(1,2-bis(4-hydroxyphenyl)but-1-en-1-yl)phenoxy)ethyl)amino)methyl)-1-oxoisoindolin-2-yl)piperidine-2,6-dione], the “IC50 for inhibiting the proliferation of tumor cells, HCC827” value [2] is reported as “A+”, the “IC50 for inhibiting the proliferation of tumor cells, T47D” value [1, 16] is reported as “A+” and the “IC50 for inhibiting the proliferation of tumor cells, CCRF-CEM” value [3, 16] is reported as “A+”. For the same molecule, the “IC50 for inhibiting the proliferation of tumor cells, MDA-MB-231” value [4, 16] was “A+”, the “IC50 for inhibiting the proliferation of tumor cells, SU-DHL-6” value [5, 17] was “A+” and the “IC50 for inhibiting the proliferation of tumor cells, MM.1S” value [6, 18] was “A+”. The “IC50 for inhibiting the proliferation of tumor cells, Kasumi-1” value [7] was “A+”, the “IC50 for inhibiting the proliferation of tumor cells, Hep3B2.7-1” value [8, 16] was “A+” and the “IC50 for inhibiting the proliferation of tumor cells, SW620” value [9] was “A+”.
`CC/C(=C(/c1ccc(O)cc1)c1ccc(OCCN)cc1)c1ccc(O)cc1` [GT-03308, reference compound] gave an IC50 ([2]; Homo sapiens, HCC827, read-out: IC50 for inhibiting the proliferation of tumor cells, HCC827) greater than 10000 nM, an IC50 ([1]; Table 8, designed based on ER inhibitors, 96 h, read-out: IC50 for inhibiting the proliferation of tumor cells, T47D) greater than 10000 nM and an IC50 ([3]; Table 8, designed based on ER inhibitors, 96 h, read-out: IC50 for inhibiting the proliferation of tumor cells, CCRF-CEM) greater than 10000 nM. For the same molecule, the IC50 ([6]; Table 8, designed based on ER inhibitors, 72 h, read-out: IC50 for inhibiting the proliferation of tumor cells, MM.1S) was greater than 10000 nM and the IC50 ([8]; Table 8, designed based on ER inhibitors, 96 h, read-out: IC50 for inhibiting the proliferation of tumor cells, Hep3B2.7-1) was greater than 10000 nM.
With `CN(C)C(=O)c1cc2cnc(Nc3ccc(N4CCC(N(C)Cc5ccc6c(c5)CN(C5CCC(=O)NC5=O)C6=O)CC4)cn3)nc2n1C1CCCC1` (stereo not drawn) [GT-03544, 7-cyclopentyl-2-((5-(4-(((2-(2,6-dioxopiperidin-3-yl)-1-oxoisoindolin-5-yl)methyl)(methyl)amino)piperidin-1-yl)pyridin-2-yl)amino)-N,N-dimethyl-7H-pyrrolo[2,3-d]pyrimidine-6-carboxamide] the “IC50 for inhibiting the proliferation of tumor cells, SU-DHL-6” value [5, 19] was “A+”.
For `CCC(=C(c1ccc(O)cc1)c1ccc(N2CCN(Cc3ccc4c(c3)CN(C3CCC(=O)NC3=O)C4=O)CC2)cc1)c1ccc(O)cc1` (stereo not drawn) [GT-03551, 3-(5-((4-(4-(1,2-bis(4-hydroxyphenyl)but-1-en-1-yl)phenyl)piperazin-1-yl)methyl)-1-oxoisoindolin-2-yl)piperidine-2,6-dione], the “IC50 for inhibiting the proliferation of tumor cells, HCC827” value [2] was “A+”, the “IC50 for inhibiting the proliferation of tumor cells, T47D” value [1, 16] was “A+” and the “IC50 for inhibiting the proliferation of tumor cells, Mino” value [10, 17] was “A+”. The “IC50 for inhibiting the proliferation of tumor cells, CCRF-CEM” value [3, 16] was “A+”, the “IC50 for inhibiting the proliferation of tumor cells, SU-DHL-6” value [5, 17] was “A+” and the “IC50 for inhibiting the proliferation of tumor cells, MM.1S” value [6, 18] was “A+”. The “IC50 for inhibiting the proliferation of tumor cells, Kasumi-1” value [7] was “A+” and the “IC50 for inhibiting the proliferation of tumor cells, SW620” value [9] was “A+”.
With `Cc1nc2c(F)cc(-c3nc(Nc4ccc(N5CCC(N(C)Cc6ccc7c(c6)CN(C6CCC(=O)NC6=O)C7=O)CC5)cn4)ncc3F)cc2n1C(C)C` (stereo not drawn) [GT-03639, 3-(5-(((1-(6-((5-fluoro-4-(4-fluoro-1-isopropyl-2-methyl-1H-benzo[d]imidazol-6-yl)pyrimidin-2-yl)amino)pyridin-3-yl)piperidin-4-yl)(methyl)amino)methyl)-1-oxoisoindolin-2-yl)piperidine-2,6-dione] the “IC50 for inhibiting the proliferation of tumor cells, Mino” value [10, 19] was “A+” and the “IC50 for inhibiting the proliferation of tumor cells, SU-DHL-6” value [5, 19] was “A+”.
With `O=C1CCC(N2Cc3cc(CN4CCN(c5cccc(-c6cnc7ccc(N8CCC[C@@H]8c8cccc(F)c8)nn67)n5)CC4)cc(F)c3C2=O)C(=O)N1` (stereo partly drawn) [GT-03867, 3-(7-fluoro-5-((4-(6-(6-((R)-2-(3-fluorophenyl)pyrrolidin-1-yl)imidazo[1,2-b]pyridazin-3-yl)pyridin-2-yl)piperazin-1-yl)methyl)-1-oxoisoindolin-2-yl)piperidine-2,6-dione] the IC50 [1, 20] was 100 to 500 nM, the IC50 [3, 21] was less than 50 nM and the IC50 ([11]; Table 22, NTRK inhibitor based) was less than 50 nM. For the same molecule, the IC50 [6, 22] was 50 to 100 nM, the IC50 ([7]; Table 22, NTRK inhibitor based) was less than 50 nM and the IC50 ([12]; Table 22, NTRK inhibitor based) was less than 50 nM. For the same molecule, the IC50 [8, 23] was less than 50 nM.
Molecule `O=C1CCC(N2Cc3cc(CN4CCN(c5cccc(-c6cnn7ccc(N8CCC[C@@H]8c8cc(F)ccc8F)nc67)n5)CC4)c(F)cc3C2=O)C(=O)N1` (stereo partly drawn) [GT-04264, 3-(5-((4-(6-(5-((R)-2-(2,5-difluorophenyl)pyrrolidin-1-yl)pyrazolo[1,5-a]pyrimidin-3-yl)pyridin-2-yl)piperazin-1-yl)methyl)-6-fluoro-1-oxoisoindolin-2-yl)piperidine-2,6-dione] has an IC50 [1, 20] of less than 50 nM, an IC50 [3, 21] of less than 50 nM and an IC50 ([11]; Table 22, NTRK inhibitor based) of less than 50 nM. It also gave an IC50 [6, 22] of less than 50 nM, an IC50 ([7]; Table 22, NTRK inhibitor based) of less than 50 nM and an IC50 ([12]; Table 22, NTRK inhibitor based) of less than 50 nM. It also gave an IC50 [8, 23] of less than 50 nM.
Work on `CNC(=O)c1ccccc1Nc1cc(Nc2ccc(N3CCOCC3)cc2OC)ncc1C(F)(F)F` [PND-1186, reference compound] yielded an IC50 ([10]; Homo sapiens, Table 18, FAK inhibitor based, Mino, read-out: IC50 inhibiting proliferation of tumor cells, Mino) of 500 to 1000 nM, an IC50 ([3]; Table 18, FAK inhibitor based, read-out: IC50 inhibiting proliferation of tumor cells, CCRF-CEM) of 500 to 1000 nM and an IC50 ([4]; Homo sapiens, Table 18, FAK inhibitor based, MDA-MB-231, read-out: IC50 inhibiting proliferation of tumor cells, MDA-MB-231) of 1000 to 5000 nM. The IC50 [13] was 100 to 500 nM, the IC50 [14] was 500 to 1000 nM and the IC50 [15] was 1000 to 5000 nM. It also gave an IC50 ([9]; Homo sapiens, SW-620, Table 18, FAK inhibitor based, SW620, read-out: IC50 inhibiting proliferation of tumor cells, SW620) of less than 50 nM.
`O=C(Nc1cnn2ccc(N3CCC[C@@H]3c3cc(F)ccc3F)nc12)N1CC[C@H](O)C1` [larotrectinib] gave an IC50 ([1]; Table 22, given as number, read-out: IC50 inhibiting proliferation of tumor cells, T47D) greater than 10000 nM, an IC50 ([3]; Table 22, given as number, read-out: IC50 inhibiting proliferation of tumor cells, CCRF-CEM) greater than 10000 nM and an IC50 ([11]; Table 22, given as number) greater than 10000 nM. It also gave an IC50 ([6]; Table 22, MM.1S, given as number, read-out: IC50 inhibiting proliferation of tumor cells, MM.1S) greater than 10000 nM, an IC50 ([7]; Table 22, given as number) greater than 10000 nM and an IC50 ([12]; Table 22, given as number) greater than 10000 nM. The IC50 ([8]; Table 22, HEP3B2.7-1, given as number, read-out: IC50 inhibiting proliferation of tumor cells, HEP3B2.7-1) was greater than 10000 nM.
